pIC50: −log10 of the molar value. “And” between values parts separate entries of the source, which are not always exact repeats. Identical values can stand only once.
Tested on: 475296-252-R-J1-PDC spheroid viability
Assay: Anticancer human tumor 475296-252-R-J1-PDC patient-derived rectal carcinoma cell line growth inhibition [PI3K]
Details: spheroids with HUVEC and MSC; for viability, T/C: stronger effect = lower value
From the text: Combinatorial screen of targeted agents with the PI3K inhibitors inavolisib, alpelisib, duvelisib, and copanlisib in multi-cell type tumor spheroids
A high-throughput screen of multi-cell type tumor spheroids was designed to identify active combinations of targeted small molecules and PI3K pathway inhibitors. Complex spheroids include a stromal component modeled by human endothelial cells (HUVEC) and fibroblasts modeled by human mesenchymal stem cells (MSCs). The concentration ranges selected for each drug and investigational agent were based upon clinically achievable concentrations if the clinical Cmax of the agent was known.
Compounds. The drugs and investigational agents: inavolisib (NSC800729), alpelisib (NSC765974), duvelisib (NSC772469), copanlisib (NSC816437), ipatasertib (NSC767898), afuresertib (NSC778305), talazoparib (NSC767125), sapanisertib (NSC764658), selumetinib (NSC741078), tovorafenib (DAY101, NSC766906), vemurafenib (NSC761431), ravoxertinib (NSC781343), sotorasib (NSC818433), MRTX1133 (NSC 836407), abemaciclib (NSC 768073), palbociclib (NSC758247), venetoclax (NSC 766270), SY5609 (NSC837396), enzalutamide (NSC755605), and darolutamide (NSC825331), were obtained from the National Cancer Institute (NCI) Developmental Therapeutics Program Chemical Repository. The FDA-approved anticancer drug set is available from the NCI Developmental Therapeutics Program. […] The stock solutions were prepared in dimethyl sulfoxide (DMSO, Sigma-Aldrich, St. Louis, MO, cat. D2650) at 800-fold the tested concentration and stored at -70 degrees C prior to their use. All drugs and investigational agents were tested over a range starting from a high concentration at or near the clinical Cmax and decreasing in half-log increments. If the clinical Cmax for an agent had not been determined, the highest concentration tested was 10 microM.
Cell Culture. All cells were maintained in an incubator at 37 degrees C and 5% CO2 with 95% humidity. The PDC lines were cultured according to standard operating procedures established by the NCI PDMR (https://pdmr.cancer.gov/sops/default.htm). All PDCs were thawed and cultured in Matrigel-coated flasks prepared with a working solution of 1X Ham's F-12 nutrient mix, without supplementation (Invitrogen, Waltham, MA, cat. 11765054), 100 U/mL penicillin-streptomycin (Invitrogen, cat. 15140122), and 2.5% Matrigel (Corning Inc., Corning, NY, cat. 354248) for the first three passages. The 354836-022-R-J1-PDC, 475296-252-R-J1-PDC, and 997726-040-R-J2-PDC lines were cultured in 6A media, which includes advanced DMEM/F-12 (Thermo Fisher Scientific, cat. 12634028), 10 mM HEPES (Thermo Fisher Scientific, cat. 15630080), 1X GlutaMAX supplement (Thermo Fisher Scientific, cat. 35050061), 0.1 mg/mL primocin (InvivoGen, San Diego, CA, cat. ant-pm-2), 10% defined fetal bovine serum, heat inactivated (HyClone Laboratories Inc., Logan, UT, cat. SH30070.03HI), 50% L-WRN conditioned media (ATCC, cat. CRL-3276), 1.25 mM N-Acetyl-L-cysteine (Sigma-Aldrich, cat. A9165), 10 mM nicotinamide (Sigma-Aldrich, cat. N0636), 1X B-27 supplement (Thermo Fisher Scientific, cat. 17504044), 1X N-2 supplement (Thermo Fisher Scientific, cat. 17502048), and 10 microM Y-27632 dihydrochloride (Tocris Bioscience, Bristol, United Kingdom, cat. 1254). The 624824-186-R-J2-PDC line was cultured in 6C/Colon 1B media, which includes all 6A media components plus 50 ng/mL human EGF recombinant protein (Thermo Fisher Scientific, cat. PHG0311). […]

[1] = compound alone, run of 06/12/2023
[2] = compound alone, run of 06/13/2023
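Note: spheroids exposed to agents for seven days before readout.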

SMILES	pIC50 (curve of compound)	pIC50 [1]	pIC50 [2]	viability, T/C (compound 0.000316 µM)	viability, T/C (compound 0.001 µM)	viability, T/C (compound 0.00316 µM)	viability, T/C (compound 0.01 µM)	viability, T/C (compound 0.0316 µM)	viability, T/C (compound 0.1 µM)	viability, T/C (compound 0.316 µM)	viability, T/C (compound 1 µM)	viability, T/C (compound 3.16 µM)	viability, T/C (compound 10 µM)	viability, T/C (compound 0.00949 µM)	viability, T/C (compound 0.03 µM)	viability, T/C (compound 0.0949 µM)	viability, T/C (compound 0.3 µM)	viability, T/C (compound 3 µM)
CC(Cn1ccc(-c2ccc(C#N)c(Cl)c2)n1)NC(=O)c1cc(C(C)O)[nH]n1 (stereo not drawn)	< 5.00	–	–	–	–	–	–	105% [middle of 4 runs]	96.9% [middle of 4 runs]	99% (2×) and 93.4% and 120%	105% [middle of 4 runs]	101% [middle of 4 runs]	105% [middle of 4 runs]	–	–	–	–	–
CC(Nc1ccc2c(c1)OCCn1cc(N3C(=O)OCC3C(F)F)nc1-2)C(N)=O (stereo not drawn)	–	< 6.00	–	–	–	98.8% [middle of 8 runs]	96.9% [middle of 8 runs]	98.1% [middle of 8 runs]	96.8% [middle of 8 runs]	91.3% [middle of 8 runs]	81.1% [middle of 7 runs]	–	–	–	–	–	–	–
CC(Nc1ncnc2nc[nH]c12)c1cc2cccc(Cl)c2c(=O)n1-c1ccccc1 (stereo not drawn)	–	–	< 5.00	–	–	–	–	102% [middle of 8 runs]	96.3% [middle of 8 runs]	90.4% [middle of 8 runs]	102% [middle of 8 runs]	96.3% [middle of 8 runs]	94.9% [middle of 8 runs]	–	–	–	–	–
CC1(C)CCC(CN2CCN(c3ccc(C(=O)NS(=O)(=O)c4ccc(NCC5CCOCC5)c([N+](=O)[O-])c4)c(Oc4cnc5[nH]ccc5c4)c3)CC2)=C(c2ccc(Cl)cc2)C1	< 5.00	–	–	–	–	–	–	97.2% and 102% (2×) and 99.9%	97% [middle of 4 runs]	101% [middle of 4 runs]	101% [middle of 4 runs]	101% (2×) and 94.9% and 88%	–	–	–	–	–	–
CC1(C)CCC(Nc2ncc(C(F)(F)F)c(-c3c[nH]c4c(P(C)(C)=O)c(C#N)ccc34)n2)CN1 (stereo not drawn)	< 5.00	–	–	–	–	–	–	90.7% [middle of 4 runs]	98.6% [middle of 4 runs]	109% [middle of 4 runs]	129% [middle of 4 runs]	148% (2×) and 176% and 175%	–	–	–	–	–	–
CCCS(=O)(=O)Nc1ccc(F)c(C(=O)c2c[nH]c3ncc(-c4ccc(Cl)cc4)cc23)c1F	< 5.00	–	–	–	–	–	–	101% [middle of 4 runs]	95% [middle of 4 runs]	96.8% [middle of 4 runs]	90.3% [middle of 4 runs]	98.2% [middle of 4 runs]	95.3% [middle of 4 runs]	–	–	–	–	–
COc1c(OCCCN2CCOCC2)ccc2c3n(c(=NC(=O)c4cnc(N)nc4)nc12)CCN3	–	–	< 6.00	–	–	103% [middle of 8 runs]	97.3% [middle of 8 runs]	90.7% [middle of 8 runs]	87% [middle of 8 runs]	71.5% [middle of 8 runs]	68% [middle of 8 runs]	–	–	–	–	–	–	–
C[C@@H](NC(=O)c1ncnc(N)c1Cl)c1ncc(C(=O)Nc2cc(C(F)(F)F)c(Cl)cn2)s1	< 5.00	–	–	–	–	–	–	89.7% [middle of 4 runs]	99.8% [middle of 4 runs]	95.5% [middle of 4 runs]	101% [middle of 4 runs]	103% [middle of 4 runs]	87.5% [middle of 4 runs]	–	–	–	–	–
Cc1nc(NC(=O)N2CCCC2C(N)=O)sc1-c1ccnc(C(C)(C)C(F)(F)F)c1 (stereo not drawn)	–	< 5.00	–	–	–	–	–	98.6% [middle of 8 runs]	97.1% [middle of 8 runs]	97% [middle of 8 runs]	99.7% [middle of 8 runs]	90.8% [middle of 8 runs]	81.6% [middle of 8 runs]	–	–	–	–	–
Cn1cnc2c(F)c(Nc3ccc(Br)cc3Cl)c(C(=O)NOCCO)cc21	< 5.52 and 5.56	–	–	–	–	–	–	–	–	–	–	–	–	97.5% [middle of 4 runs]	91.9% [middle of 4 runs]	90.2% [middle of 4 runs]	80.8% [middle of 4 runs]	61.2% [middle of 4 runs]
Cn1ncc(Cl)c1-c1cc(C(=O)NC(CN)Cc2cccc(F)c2)sc1Cl (stereo not drawn)	< 5.00	–	–	–	–	–	–	85.6% [middle of 4 runs]	88.6% [middle of 4 runs]	68% [middle of 4 runs]	65.5% [middle of 4 runs]	75.9% [middle of 4 runs]	70.7% [middle of 4 runs]	–	–	–	–	–
Cn1nccc1Nc1nccc(-c2ccn(C(CO)c3ccc(Cl)c(F)c3)c(=O)c2)n1 (stereo not drawn)	< 5.00	–	–	–	–	–	–	104% [middle of 4 runs]	96.6% [middle of 4 runs]	102% [middle of 4 runs]	89.5% [middle of 4 runs]	–	82.3% [middle of 4 runs]	–	–	–	–	–

Second part, led by results:

pIC50 (curve of compound)	pIC50 [1]	pIC50 [2]	SMILES	viability, T/C (compound 0.000316 µM)	viability, T/C (compound 0.001 µM)	viability, T/C (compound 0.00316 µM)	viability, T/C (compound 0.01 µM)	viability, T/C (compound 0.0316 µM)	viability, T/C (compound 0.1 µM)	viability, T/C (compound 0.316 µM)	viability, T/C (compound 1 µM)	viability, T/C (compound 3.16 µM)	viability, T/C (compound 10 µM)	viability, T/C (compound 0.00949 µM)	viability, T/C (compound 0.03 µM)	viability, T/C (compound 0.0949 µM)	viability, T/C (compound 0.3 µM)	viability, T/C (compound 3 µM)
< 7.00	–	–	CC(=O)c1c(C)c2cnc(Nc3ccc(N4CCNCC4)cn3)nc2n(C2CCCC2)c1=O	106% [middle of 4 runs]	98.3% [middle of 4 runs]	98% [middle of 4 runs]	98.9% [middle of 4 runs]	108% [middle of 4 runs]	108% [middle of 4 runs]	–	–	–	–	–	–	–	–	–
< 5.00	–	–	CC(C)NCC(C(=O)N1CCN(c2ncnc3c2C(C)CC3O)CC1)c1ccc(Cl)cc1 (stereo not drawn)	–	–	–	–	102% [middle of 4 runs]	105% [middle of 4 runs]	89.5% [middle of 4 runs]	76.1% [middle of 4 runs]	75.5% [middle of 4 runs]	62.3% [middle of 4 runs]	–	–	–	–	–
< 7.00	–	–	CC(C)n1nc(-c2ccc3oc(N)nc3c2)c2c(N)ncnc21	99.6% [middle of 4 runs]	94.3% [middle of 4 runs]	93.9% [middle of 4 runs]	–	–	63.1% [middle of 4 runs]	–	–	–	–	–	–	–	–	–
< 6.00	–	–	CCN1CCN(Cc2ccc(Nc3ncc(F)c(-c4cc(F)c5nc(C)n(C(C)C)c5c4)n3)nc2)CC1	–	–	101% [middle of 4 runs]	100% [middle of 4 runs]	95.7% [middle of 4 runs]	100% [middle of 4 runs]	101% [middle of 4 runs]	92.4% [middle of 4 runs]	–	–	–	–	–	–	–
< 7.00	–	–	Cn1ncnc1[C@H]1c2n[nH]c(=O)c3cc(F)cc(c23)N[C@@H]1c1ccc(F)cc1	114% and 102% (2×) and 106%	104% [middle of 4 runs]	96.1% [middle of 4 runs]	93.1% [middle of 4 runs]	104% [middle of 4 runs]	90.4% [middle of 4 runs]	–	–	–	–	–	–	–	–	–
